“Also recorded” adds a separate entry of the source.
Tests used:
[1] = tested on: IL1β (interleukin 1 beta); assay: Inhibition of LPS-induced synthesis and liberation of cellular IL1β in human mononuclear cells (sandwich enzyme immuno test of supernatant); format: cell-based; conditions: for activity at 10 µM: concentration 0.01 mmol/l; for activity at 100 µM: concentration 0.1 mmol/l; for inhibitory effect on the synthesis and liberation of cytokines from human blood cells / effect on the IL1β level: in words; for effect on the IL1β level: human mononuclear cells, LPS-induced
Procedure: 10 ml of freshly prepared human citrate blood were carefully underlaid with 15 ml of Lymphoprep® (Molter GmbH, Heidelberg) and then centrifuged at 400×g for 40 min. at 20° C. The cell fraction which was visible as a white ring at the phase boundary was withdrawn with the aid of a syringe, diluted 1:1 (v/v) with PM-16 buffer (from Serva Feinbiochemica GmbH & Co. KG, Heidelberg) and then centrifuged, as above, for 10 min. […] Using a cell counter (type IT, from Coulter Diagnostics, Krefeld), the cell suspension, which is composed of about 90% lymphocytes and 10% monocytes, was adjusted to about 5 million cells/ml. Cell viability was monitored before and after the inhibition experiments using the known lactate dehydrogenase method.
The synthesis and liberation of cellular IL1β was induced by adding a solution of 500 ng of lipopolysaccharide (Salmonella abortus equi, Sigma GmbH, Deisenhofen) in 0.01 ml of dimethyl sulfoxide/water (1:10, v/v) to 0.48 ml of the above-described cell fraction. At the same time, a solution of leflunomide or leflunomide metabolite in 0.01 ml of dimethyl sulfoxide (for the final concentration in each case, see Tab. 1) was added to the cell fraction and the mixture was left at 37° C. for 20 h in a commercially available incubator. After cooling down to 0° C., the samples were centrifuged for 1 min. in a bench centrifuge and in each case 0.025 ml aliquots of the supernatant were examined for their IL1β content using a "sandwich" enzyme-immuno test kit (from Biermann GmbH, Bad Nauheim) in accordance with the manufacturer's instructions. The control values were determined without the addition of leflunomide or metabolite and set at 100%.

[2] = Metabolism of leflunomide in the mononuclear cell test sample (HPLC, time-dependent); format: in vitro ADME, human; conditions: human, mononuclear cells; mononuclear cell test sample, 37° C., HPLC
[3] = tested on: isolated blood cell fraction (mononuclear cells); assay: as above; format: in vitro ADME, human; conditions: in words; isolated blood cell fraction (mononuclear cells)
[4] = tested on: SD rat; assay: Acute toxicity following intraperitoneal administration, SD rats; format: in vivo; conditions: after 3 weeks, Litchfield and Wilcoxon, 30240 min
Procedure: (§1) The acute toxicity following intraperitoneal administration of the test substance was carried out using NMRI mice (20 to 25 g) and SD rats (120 to 195 g). The test substance was suspended in a 1% strength solution of sodium carboxymethyl cellulose. The different doses of the test substance were administered to the mice in a volume of 10 ml/kg of body weight and to the rats in a volume of 5 ml/kg of body weight. 10 animals were used per dose. After 3 weeks, the acute toxicity was determined by the method of Litchfield and Wilcoxon.

[5] = tested on: NMRI mouse; assay: Acute toxicity following intraperitoneal administration, NMRI mice; format: in vivo; conditions: after 3 weeks, Litchfield and Wilcoxon, 30240 min
Procedure: as §1

[6] = Homo sapiens, control without addition = 100%, +/- standard deviation, 20 h, 37° C., LPS 500 ng

SMILES	activity at 10 µM [1, 6] [%]	activity at 100 µM [1, 6] [%]	inhibitory effect on the synthesis and liberation of cytokines from human blood cells [1]	effect on the IL1β level [1]	activity at 0.1 µM ([1]; Homo sapiens, concentration 0.0001 mmol/l, control without addition = 100%, +/- standard deviation, 20 h, 37° C., LPS 500 ng) [%]	activity at 5 µM ([1]; Homo sapiens, concentration 0.005 mmol/l, control without addition = 100%, n = 2, deviation not given, 20 h, 37° C., LPS 500 ng) [%]	activity at 50 µM ([1]; Homo sapiens, concentration 0.05 mmol/l, control without addition = 100%, +/- standard deviation, 20 h, 37° C., LPS 500 ng) [%]	half-life [2] [h]	metabolism of leflunomide under the experimental conditions [3]	acute toxicity intraperitoneally LD50 [4]	acute toxicity intraperitoneally LD50 [5]
C/C(O)=C(\C#N)C(=O)Nc1ccc(C(F)(F)F)cc1 [Leflunomide metabolite, N-(4-trifluoromethylphenyl)-2-cyano-3-hydroxycrotonamide]	100 ± 3	99 ± 12	does not exhibit this advantageous effect	practically no effect on the IL1β level							
Cc1oncc1C(=O)Nc1ccc(C(F)(F)F)cc1 [Leflunomide, N-(4-trifluoromethylphenyl)-5-methylisoxazole-4-carboxamide]	70 ± 8	17 ± 4	strong inhibitory effect	clearly lowered	86 ± 11	68	27 ± 6	~10	did not, to any appreciable extent, metabolize the leflunomide to its metabolites; also recorded: metabolized only very slowly; also recorded: no appreciable metabolism	170 (153-189) mg/kg	185 (163-210) mg/kg

From patent US5556870A, “Use of leflunomide for inhibiting interleukin 1 beta” (priority 1993, dated 1996)
